Data: BindingDB's records for doi:10.1021/jm00129a004 (Bristol Myers Squibb, 1989)

Molecular target: HMG-CoA reductase (Rattus norvegicus)
Experiment: In vitro inhibition of rat liver microsomal HMG-CoA reductase activity

SMILES	IC50 [nM]
Cn1nnnc1C(/C=C/[C@@H]1C[C@@H](O)CC(=O)O1)=C(c1ccc(F)cc1)c1ccc(F)cc1 [6-[4,4-Bis-(4-fluoro-phenyl)-3-(1-methyl-1H-tetrazol-5-yl)-buta-1,3-dienyl]-4-hydroxy-tetrahydro-pyran-2-one (BMY 22089)]	43
Cn1nnnc1C(/C=C/[C@H]1C[C@H](O)CC(=O)O1)=C(c1ccc(F)cc1)c1ccc(F)cc1	19
